From ChEMBL document CHEMBL1201862, “PubChem BioAssay data set” (2004) come the findings set out here.

The source made the active and inactive calls. Some results are limits rather than exact numbers.

Experiment [1] has as its target Cytochrome P450 2D6 (Homo sapiens, UniProt P10635). As to the kind of experiment: qHTS Assay for Inhibitors and Substrates of Cytochrome P450 2D6. [Related pubchem assays: 410 ]. In kind it is ADME. The following applies: read-out: Potency.
Experiment [2] addresses Mothers against decapentaplegic homolog 3 (Homo sapiens, UniProt P84022). As to the kind of experiment: Smad3 binding inhibitors, lysate ELISA, dose response, cell lysate, secondary confirmation, chemiluminescent ELISA, HEK293 lysate (AID 1058). The format is functional. On the technique in general: ELISA stands for enzyme-linked immunosorbent assay.
Experiment [3] deals with Cytochrome P450 2C9 (Homo sapiens, UniProt P11712). Conditions: Potency.
In experiment [4] the target is T1, Probable nicotinate-nucleotide adenylyltransferase (Staphylococcus aureus (strain N315), UniProt P65502). In kind it is functional, Staphylococcus aureus subsp. aureus N315.
Experiment [5] has as its target Phospholipase A2 (Homo sapiens, UniProt P04054). The format is functional.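 Further: confirmatory dose-response counterscreen on phospholipase A2, testing hits that came from an ultra-high-throughput screen for ATG4B inhibitors.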
The target of experiment [6] is T2, Cysteine protease ATG4B (Homo sapiens, UniProt Q9Y4P1).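 Further: Fluorescence-based dose-response confirmation assay measuring inhibition of ATG4B activity.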
T2 sequence (Q9Y4P1 whole entry): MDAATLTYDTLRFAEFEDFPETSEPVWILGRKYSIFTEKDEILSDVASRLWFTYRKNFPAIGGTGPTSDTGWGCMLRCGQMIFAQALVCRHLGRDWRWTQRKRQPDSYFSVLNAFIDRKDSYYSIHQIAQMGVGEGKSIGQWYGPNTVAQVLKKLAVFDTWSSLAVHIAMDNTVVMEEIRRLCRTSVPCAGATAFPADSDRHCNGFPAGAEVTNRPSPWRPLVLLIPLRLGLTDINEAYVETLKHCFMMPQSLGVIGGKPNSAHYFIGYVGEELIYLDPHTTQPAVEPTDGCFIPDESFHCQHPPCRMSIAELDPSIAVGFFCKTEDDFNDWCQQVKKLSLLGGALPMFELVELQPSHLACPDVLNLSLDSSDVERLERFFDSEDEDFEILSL
The format is functional.

Experiment [7] is described as follows: inhibitors of Bluetongue virus cytopathic effect, confirmation, arbovirus, BSR cells (AID 1250).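 Further: protection from viral cytopathic effect measured as cell viability by ATP luminescence.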 The format is functional.
The target of experiment [8] is T1, Probable nicotinate-nucleotide adenylyltransferase. In kind it is functional, Staphylococcus aureus subsp. aureus N315. The following applies: read-out: IC50_Mean.
Experiment [9] can be described thus: Luminescence Cell-Based Dose Retest to Confirm Inhibitors of Cancer Stem Cells. [Related pubchem assays (depositor defined):AID2717, AID2721]. The following applies: Homo sapiens. In kind it is functional.
Experiment [10] addresses Vasopressin V1a receptor (Homo sapiens, UniProt P37288). As to the kind of experiment: Counterscreen for Oxytocin Receptor (OXTR) agonists: Fluorescence-based cell-based high throughput dose response assay to identify agonists of the vasopressin 1 receptor (V1R). [Related pubchem assays: 2435 (Primary screen (OXTR agonists in singlicate)), 434991 (Counterscreen (V1R agonists in triplicate)), 2482 (Summary (OXTR agonists)) …. In kind it is functional. (Counterscreens check selectivity or assay interference.)

Experiment [11] addresses Oxytocin receptor (Homo sapiens, UniProt P30559). As to the kind of experiment: Fluorescence-based cell-based high throughput dose response assay for agonists of the Oxytocin Receptor (OXTR). [Related pubchem assays: 2435 (Primary screen (OXTR agonists in singlicate)), 434991 (Counterscreen (V1R agonists in triplicate)), 2482 (Summary (OXTR agonists)), 434963 (Confirmation screen (OXTR agonists in triplicate))]. The format is functional.

The nature of experiment [12]: inhibitors of SNCA 5'UTR-driven reporter translation, confirmation, H4 neuroglioma cells, luminescence (AID 1988). In kind it is functional, cell-based.
The nature of experiment [13]: Luminescence Cell-Based Dose Response HTS to Identify Inhibitors of 5'UTR Stem-Loop Driven Prion Protein mRNA Translation in H4 Neuroglioblastoma Cells. [Related pubchem assays: 1827 (Project Summary), 1813 (Primary HTS)]. The format is functional.
Experiment [14] can be described thus: inhibitors of firefly luciferase expression or activity, dose response, H4 neuroglioma cells, luminescence (AID 1990). The format is functional, cell-based.
Experiment [15] in a line: HIV-1 Env-mediated cell fusion inhibitors, dose response, CCR5-tropic Env (AID 2279). In kind it is functional.
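Wherever IC50 Mean is given: confirmatory dose-response retesting of NadD inhibitor hits first found in an ultra-high-throughput screen.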

T1 sequence (P65502 whole entry): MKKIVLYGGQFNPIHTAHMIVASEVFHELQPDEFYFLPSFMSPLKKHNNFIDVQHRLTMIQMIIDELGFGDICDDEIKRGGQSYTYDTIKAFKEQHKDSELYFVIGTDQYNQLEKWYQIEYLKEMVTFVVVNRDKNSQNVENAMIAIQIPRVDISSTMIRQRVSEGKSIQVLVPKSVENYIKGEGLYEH
Sequence of Phospholipase A2 (P04054 whole entry): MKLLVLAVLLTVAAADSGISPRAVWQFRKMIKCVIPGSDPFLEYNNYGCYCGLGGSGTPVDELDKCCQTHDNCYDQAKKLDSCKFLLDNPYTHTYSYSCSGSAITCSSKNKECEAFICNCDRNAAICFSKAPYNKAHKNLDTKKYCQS
Sequence of Vasopressin V1a receptor (P37288 whole entry): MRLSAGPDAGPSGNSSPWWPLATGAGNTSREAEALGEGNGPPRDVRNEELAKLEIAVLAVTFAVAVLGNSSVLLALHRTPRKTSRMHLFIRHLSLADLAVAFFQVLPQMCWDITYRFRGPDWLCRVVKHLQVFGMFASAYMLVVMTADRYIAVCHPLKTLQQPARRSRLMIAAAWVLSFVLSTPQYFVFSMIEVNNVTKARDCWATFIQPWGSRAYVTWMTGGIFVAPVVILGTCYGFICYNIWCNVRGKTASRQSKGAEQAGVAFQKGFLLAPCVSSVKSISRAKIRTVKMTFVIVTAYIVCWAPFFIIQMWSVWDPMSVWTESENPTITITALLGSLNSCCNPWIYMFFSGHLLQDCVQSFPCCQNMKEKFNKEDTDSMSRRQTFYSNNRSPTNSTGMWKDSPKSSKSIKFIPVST
Sequence of Oxytocin receptor (P30559 whole entry): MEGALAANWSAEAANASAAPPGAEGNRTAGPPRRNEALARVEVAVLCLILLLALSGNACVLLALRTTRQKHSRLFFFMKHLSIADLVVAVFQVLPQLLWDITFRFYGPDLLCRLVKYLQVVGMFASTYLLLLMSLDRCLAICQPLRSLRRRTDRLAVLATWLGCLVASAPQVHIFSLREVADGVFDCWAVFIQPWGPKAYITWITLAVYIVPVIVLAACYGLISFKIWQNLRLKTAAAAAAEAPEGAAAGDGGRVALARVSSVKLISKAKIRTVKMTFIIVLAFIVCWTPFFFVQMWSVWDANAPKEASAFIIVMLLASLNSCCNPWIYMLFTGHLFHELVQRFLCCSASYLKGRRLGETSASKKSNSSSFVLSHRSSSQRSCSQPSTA
Sequence of Cytochrome P450 2D6 (P10635 whole entry): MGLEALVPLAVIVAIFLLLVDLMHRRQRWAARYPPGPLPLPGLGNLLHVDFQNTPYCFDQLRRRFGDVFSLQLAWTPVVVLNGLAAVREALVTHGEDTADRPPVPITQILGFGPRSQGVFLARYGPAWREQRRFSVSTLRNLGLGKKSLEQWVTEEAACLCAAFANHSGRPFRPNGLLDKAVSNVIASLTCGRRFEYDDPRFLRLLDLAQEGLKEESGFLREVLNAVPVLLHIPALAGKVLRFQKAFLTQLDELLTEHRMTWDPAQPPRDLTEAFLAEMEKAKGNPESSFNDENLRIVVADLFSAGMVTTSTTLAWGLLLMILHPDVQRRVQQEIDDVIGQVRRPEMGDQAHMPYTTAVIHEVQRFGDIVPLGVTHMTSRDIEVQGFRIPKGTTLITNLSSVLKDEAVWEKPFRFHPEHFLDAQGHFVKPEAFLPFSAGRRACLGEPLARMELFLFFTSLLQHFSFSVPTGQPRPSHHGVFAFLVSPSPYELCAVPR
Sequence of Cytochrome P450 2C9 (P11712 whole entry): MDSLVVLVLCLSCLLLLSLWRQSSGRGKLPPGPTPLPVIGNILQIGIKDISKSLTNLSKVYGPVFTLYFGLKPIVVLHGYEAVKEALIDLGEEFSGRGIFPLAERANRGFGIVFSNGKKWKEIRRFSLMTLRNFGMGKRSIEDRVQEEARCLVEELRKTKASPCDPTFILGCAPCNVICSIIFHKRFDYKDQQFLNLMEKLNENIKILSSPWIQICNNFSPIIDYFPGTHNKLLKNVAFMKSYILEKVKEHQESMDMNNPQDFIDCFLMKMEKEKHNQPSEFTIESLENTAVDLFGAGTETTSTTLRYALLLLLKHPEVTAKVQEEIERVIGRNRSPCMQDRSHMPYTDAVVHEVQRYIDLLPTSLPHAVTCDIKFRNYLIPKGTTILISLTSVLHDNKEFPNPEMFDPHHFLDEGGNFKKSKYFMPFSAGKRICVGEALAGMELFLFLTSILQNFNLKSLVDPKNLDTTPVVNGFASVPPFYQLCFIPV
Sequence of Mothers against decapentaplegic homolog 3 (P84022 whole entry): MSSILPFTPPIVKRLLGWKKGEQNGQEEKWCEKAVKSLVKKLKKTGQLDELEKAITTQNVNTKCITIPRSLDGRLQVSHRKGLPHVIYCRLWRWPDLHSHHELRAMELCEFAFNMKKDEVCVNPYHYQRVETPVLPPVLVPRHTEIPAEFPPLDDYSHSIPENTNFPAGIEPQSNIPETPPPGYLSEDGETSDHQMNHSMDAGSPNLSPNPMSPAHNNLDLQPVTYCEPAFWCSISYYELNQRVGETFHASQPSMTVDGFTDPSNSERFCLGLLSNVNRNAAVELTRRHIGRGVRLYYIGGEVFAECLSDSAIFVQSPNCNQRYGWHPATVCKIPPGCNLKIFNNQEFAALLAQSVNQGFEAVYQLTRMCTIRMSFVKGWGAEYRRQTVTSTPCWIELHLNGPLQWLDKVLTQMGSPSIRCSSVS

For the compound `CCN1C(C)=C(C(=O)OC)C(c2ccccc2)N2C(=O)[C@](O)(C(=O)OC)C(c3ccccc3)C(C(=O)c3ccccc3)=C12` (stereo not given in full), the AC50 in [1] is 3.16 µM (inconclusive).

In the case of `Oc1cc2c(cc1C(c1ccc(F)cc1)N1CCCC1)OCO2` (stereo not given), the IC50 in experiment [2] is 23.3 µM (not active).

As for `CC(C)[C@@H](CC(=O)N[C@@H]1CCCC[C@H]1C(=O)N[C@H](CC(=O)N[C@@H](CCC(=O)O)CC(=O)O)Cc1ccccc1)NC(=O)C[C@H](CO)NC(=O)[C@@H]1CNCC[C@H]1N`, the AC50 in [3] is 31.6 µM (inconclusive).

Take `CCc1nnc(NS(=O)(=O)c2ccc(N/C=C\C(=O)c3ccc4ccccc4c3)cc2)s1`: the IC50 was 5.19 µM (active) in experiment [4]; 9.13 µM (active) in [5]; 11.1 µM (active) in experiment [6]; 62.9 µM (active) in experiment [7]; 29.7 µM (active) in experiment [8].

A word on the EC50: it is the concentration that produces a half-maximal response. Turning to `CC1(C)CC[C@@]2(C(=O)O)C(C1)C1=CCC3[C@@]4(C)CC[C@H](O)C(C)(C)C4CC[C@@]3(C)[C@]1(C)C[C@H]2O` (stereo not given in full), in [9], the AC50 was 7.33 µM (active). In addition, the figures for the concentration for a half-maximal effect (EC50) in [10] and in experiment [11] were 2.33 µM (active) and 2.67 µM (active), respectively.

In the case of `O=C(OCC1OC(n2ncc(=O)[nH]c2=O)C(OC(=O)c2ccccc2)C1OC(=O)c1ccccc1)c1ccccc1` (stereo not given), the 50% effective concentration (EC50) is > 120 µM (not active) in experiment [12], 17.7 µM (active) in experiment [13] and 13.5 µM (active) in experiment [14]. For the same compound, the IC50 in experiment [15] is 12.2 µM (active).
